SMILES strings stand for the structures.

The target of this assay is T1, His6-PDK1 (aa 52-556) (Homo sapiens, UniProt O15530).
T1 construct: 15 μL His6-PDK1 (aa 52-556) 3.33 ng/well); host or cells: baculovirus-infected insect cells
T1 sequence (O15530 52-556): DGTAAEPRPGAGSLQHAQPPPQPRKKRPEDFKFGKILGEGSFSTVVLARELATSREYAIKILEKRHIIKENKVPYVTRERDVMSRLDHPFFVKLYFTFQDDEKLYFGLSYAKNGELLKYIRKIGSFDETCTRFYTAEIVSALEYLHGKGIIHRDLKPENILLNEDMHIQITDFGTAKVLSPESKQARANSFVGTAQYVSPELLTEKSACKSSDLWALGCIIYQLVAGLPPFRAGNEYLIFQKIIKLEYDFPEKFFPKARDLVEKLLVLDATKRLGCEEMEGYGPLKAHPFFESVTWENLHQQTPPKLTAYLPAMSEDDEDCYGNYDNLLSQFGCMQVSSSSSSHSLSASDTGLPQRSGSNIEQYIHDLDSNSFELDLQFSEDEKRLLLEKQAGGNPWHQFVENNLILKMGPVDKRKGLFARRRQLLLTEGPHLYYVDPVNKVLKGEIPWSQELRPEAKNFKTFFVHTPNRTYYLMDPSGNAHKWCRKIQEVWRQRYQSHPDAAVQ
The assay is described as follows: PDK1 kinase assay III (with Tween 20). In kind it is biochemical. Particulars: compound at 10 μM; PDK1 kinase assay III (values without asterisk); read-out: % CTL (residual activity of the enzyme relative to DMSO control). The method, boiled down: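 Started with ATP, incubated 90 min at ambient temperature, then stopped with phosphoric acid. Asterisked values come from assay II (24 h or 5 min incubation).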
Regarding `O=C(NCc1ccc(Nc2ncnc3[nH]ccc23)cc1)c1cncn(Cc2ccc(F)c(F)c2)c1=O` [IV-27, 1-(3,4-difluorobenzyl)-6-oxo-N-[4-(7H-pyrrolo[2,3-d]pyrimidin-4-ylamino)benzyl]-1,6-dihydropyrimidine-5-carboxamide], the remaining activity at 10 µM is 43.9%. On to `CN1CCC(N(C)c2ccc(Nc3ncc4cc(/C=C/CNC(=O)c5ccnn(Cc6ccc(F)c(F)c6)c5=O)ccc4n3)cc2)CC1` [IV-52, 2-(3,4-difluorobenzyl)-N-{(2E)-3-[2-({4-[methyl(1-methylpiperidin-4-yl)amino]-phenyl}amino)quinazolin-6-yl]prop-2-en-1-yl}-3-oxo-2,3-dihydropyridazine-4-carboxamide], for which the remaining activity at 10 µM came out at 17.2%.

As for `Cc1c(C(=O)NCC#Cc2ccc3nc(NC4CCOCC4)ncc3c2)c(=O)n(Cc2ccc(F)c(F)c2)n1C`, the remaining activity at 10 µM was determined as 25%.

For the molecule `Cc1c(C(=O)NC/C=C/c2ccc3nc(Nc4ccc(C(=O)NC5CCN(C)CC5)c(Cl)c4)ncc3c2)c(=O)n(Cc2ccc(F)c(F)c2)n1C`, the remaining activity at 10 µM is 14.4%. Consider `NCc1[nH]cnc1/C=C1\C(=O)Nc2cc(/C=C/CNC(=O)c3cncn(Cc4ccc(F)c(F)c4)c3=O)ccc21` [I-49, N-{(2E)-3-[(3Z)-3-{[5-(aminomethyl)-1H-imidazol-4-yl]methylidene}-2-oxo-2,3-dihydro-1H-indol-6-yl]prop-2-en-1-yl}-1-(3,4-difluorobenzyl)-6-oxo-1,6-dihydropyrimidine-5-carboxamide], for which the remaining activity at 10 µM was determined as 12.6%. Next, `Cc1c(C(=O)NC/C=C/c2ccc3c(c2)NC(=O)/C3=C\c2nc[nH]c2CN)c(=O)n(Cc2ccc(F)c(F)c2)n1C` [I-50, N-{(2E)-3-[(3Z)-3-{[5-(aminomethyl)-1H-imidazol-4-yl]methylidene}-2-oxo-2,3-dihydro-1H-indol-6-yl]prop-2-en-1-yl}-2-(3,4-difluorobenzyl)-1,5-dimethyl-3-oxo-2,3-di-hydro-1H-pyrazole-4-carboxamide]: 16.6%; `Cc1c(C#CCNC(=O)c2c(C)n(C)n(Cc3ccc(F)c(F)c3)c2=O)c(=O)n(CCN)c2nc(Nc3ccc(N4CCOCC4)cc3)ncc12` [IV-60, N-{3-[8-(2-aminoethyl)-5-methyl-2-{[4-(morpholin-4-yl)phenyl]amino}-7-oxo-7,8-dihydropyrido[2,3-d]pyrimidin-6-yl]prop-2-yn-1-yl}-2-(3,4-difluorobenzyl)-1,5-dimethyl-3-oxo-2,3-dihydro-1H-pyrazole-4-carboxamide]: 13.3%. In the case of `O=C1Nc2cc(/C=C/CNC(=O)c3cccc(Nc4ccc(F)c(F)c4)n3)ccc2/C1=C/c1ccc[nH]1` [I-19, 6-[(3,4-difluorophenyl)amino]-N-{(2E)-3-[(3Z)-2-oxo-3-(1H-pyrrol-2-ylmethylidene)-2,3-dihydro-1H-indol-6-yl]prop-2-en-1-yl}pyridine-2-carboxamide], the remaining activity at 10 µM is 36.9%.

Turning to `Cc1c(C(=O)NCC#Cc2ccc3nc(Nc4ccc(N(C)C5CCN(C)CC5)cc4)ncc3c2)c(=O)n(Cc2ccc(F)c(F)c2)n1C` [III-40, 2-(3,4-difluorobenzyl)-1,5-dimethyl-N-{3-[2-({4-[methyl(1-methylpiperidin-4-yl)amino]phenyl}amino)quinazolin-6-yl]prop-2-yn-1-yl}-3-oxo-2,3-dihydro-1H-pyrazole-4-carboxamide], the remaining activity at 10 µM came out at 13.5%.

As for `CNC(=O)c1ccc(Nc2ncc3cc(/C=C/CNC(=O)c4c(C)n(C)n(Cc5ccc(F)c(F)c5)c4=O)ccc3n2)cc1Cl`, the remaining activity at 10 µM turned out to be 18.6%.

As for `Cc1c(C(=O)NCC#Cc2ccc3nc(Nc4ccc(C(=O)NCCN(C)C)cc4)ncc3c2)c(=O)n(Cc2ccc(F)c(F)c2)n1C`, the remaining activity at 10 µM worked out at 10.8%.

As to `COC(=O)c1ccc(Nc2ncc3cc(C#CCNC(=O)c4c(C)n(C)n(Cc5ccc(F)c(F)c5)c4=O)ccc3n2)cc1` [III-46, methyl-4-({6-[3-({[2-(3,4-difluorobenzyl)-1,5-dimethyl-3-oxo-2,3-dihydro-1H-pyrazol-4-yl]carbonyl}amino)prop-1-yn-1-yl]quinazolin-2-yl}amino)benzoate], the remaining activity at 10 µM was 21%.

For the molecule `COc1cc(Nc2ncc3cc(C#CCNC(=O)c4c(C)n(C)n(Cc5ccc(F)c(F)c5)c4=O)ccc3n2)ccc1C(=O)NC1CCN(C)CC1`, the remaining activity at 10 µM is 15%. For the molecule `CN1CCC(N(C)c2ccc(Nc3ncc4cc(/C=C/CNC(=O)c5cncn(Cc6ccc(F)c(F)c6)c5=O)ccc4n3)cc2)CC1` [IV-45, 1-(3,4-difluorobenzyl)-N-{(2E)-3-[2-({4-[methyl(1-methylpiperidin-4-yl)amino]-phenyl}amino)quinazolin-6-yl]prop-2-en-1-yl}-6-oxo-1,6-dihydropyrimidine-5-carboxamide], the remaining activity at 10 µM came to 15.3%. For `O=C1Nc2cc(/C=C/CNC(=O)c3cc(Cl)nn(Cc4ccc(F)c(F)c4)c3=O)ccc2/C1=C/c1ccc[nH]1` [I-34, 6-chloro-2-(3,4-difluorobenzyl)-3-oxo-N-{(2E)-3-[(3Z)-2-oxo-3-(1H-pyrrol-2-ylmethylidene)-2,3-dihydro-1H-indol-6-yl]prop-2-en-1-yl}-2,3-dihydropyridazine-4-carboxamide], the remaining activity at 10 µM stood at 21.4%. Next, `CN1CCC(N(C)c2ccc(Nc3ncc4cc(/C=C/CNC(=O)c5nccn(Cc6ccc(F)c(F)c6)c5=O)ccc4n3)cc2)CC1` [IV-49, 4-(3,4-difluorobenzyl)-N-{(2E)-3-[2-({4-[methyl(1-methylpiperidin-4-yl)amino]-phenyl}amino)quinazolin-6-yl]prop-2-en-1-yl}-3-oxo-3,4-dihydropyrazine-2-carboxamide]: 13.5%; `Cc1c(C(=O)NC/C=C/c2ccc3nc(Nc4ccc(N(C)C5CCN(C)CC5)cc4)ncc3c2)c(=O)n(Cc2ccc(F)c(F)c2)n1C` [IV-54, 2-(3,4-difluorobenzyl)-1,5-dimethyl-N-{(2E)-3-[2-({4-[methyl(1-methylpiperidin-4-yl)amino]phenyl}amino)quinazolin-6-yl]prop-2-en-1-yl}-3-oxo-2,3-dihydro-1H-pyrazole-4-carboxamide]: 16.6%. The same measure for `O=C1Nc2cc(/C=C/CNC(=O)C3CCN(Cc4ccc(F)c(F)c4)C3=O)ccc2/C1=C/c1cnc[nH]1` (centres unmarked) [I-11, 1-(3,4-difluorobenzyl)-N-{(2E)-3-[(3Z)-3-(1H-imidazol-5-ylmethylidene)-2-oxo-2,3-dihydro-1H-indol-6-yl]prop-2-en-1-yl}-2-oxopyrrolidine-3-carboxamide]: 21.7%; for `Cc1c(C(=O)NCC#Cc2cc3cnc(Nc4ccc(N5CCOCC5)cc4)nc3n(C(C)C)c2=O)c(=O)n(Cc2ccc(F)c(F)c2)n1C` [IV-58, 2-(3,4-difluorobenzyl)-1,5-dimethyl-N-{3-[2-{[4-(morpholin-4-yl)phenyl]amino}-7-oxo-8-(propane-2-yl)-7,8-dihydropyrido[2,3-c]pyrimidin-6-yl]prop-2-yn-1-yl}-3-oxo-2,3-dihydro-1H-pyrazole-4-carboxamide]: 14.6%. Next, `CCOC(=O)c1ccc(Nc2ncc3cc(C#CCNC(=O)c4cncn(Cc5ccc(F)c(F)c5)c4=O)ccc3n2)cc1` [III-39, ethyl-4-({6-[3-({[1-(3,4-difluorobenzyl)-6-oxo-1,6-dihydropyrimidin-5-yl]carbonyl}amino)prop-1-yn-1-yl]quinazolin-2-yl}amino)benzoate]: 19%; `Cc1c(C(=O)NC/C=C/c2ccc3ncncc3c2)c(=O)n(Cc2ccc(F)c(F)c2)n1C` [IV-57, 2-(3,4-difluorobenzyl)-1,5-dimethyl-3-oxo-N-[(2E)-3-(quinazolin-6-yl)prop-2-en-1-yl]-2,3-dihydro-1H-pyrazole-4-carboxamide]: 35.5%; `Cc1ncc(C(=O)NC/C=C/c2ccc3nc(Nc4ccc(CN(C)C)cc4)ncc3c2)c(=O)n1Cc1ccc(F)c(F)c1`: 13.8%.

For `CN1CCC(Nc2ccc(Nc3ncc4cc(C#CCNC(=O)c5cn(C)c(=O)n(Cc6ccc(F)c(F)c6)c5=O)ccc4n3)cc2F)CC1` [III-33, 3-(3,4-difluorobenzyl)-N-{3-[2-({3-fluoro-4-[(1-methylpiperidin-4-yl)amino]phenyl}amino)quinazolin-6-yl]prop-2-yn-1-yl}-1-methyl-2,4-dioxo-1,2,3,4-tetrahydropyrimidine-5-carboxamide], the remaining activity at 10 µM is 22.8%. As to `O=C1Nc2cc(/C=C/CNC(=O)c3cncn(Cc4ccc(F)c(F)c4)c3=O)ccc2/C1=C/c1ccc[nH]1` [I-1, 1-(3,4-difluorobenzyl)-6-oxo-N-{(2E)-3-[(3Z)-2-oxo-3-(1H-pyrrol-2-ylmethylidene)-2,3-dihydro-1H-indol-6-yl]prop-2-en-1-yl}-1,6-dihydropyrimidine-5-carboxamide], the remaining activity at 10 µM worked out at 18.1%.

As to `Cc1c(C(=O)NC/C=C/c2ccc3nc(Nc4ccc(NC5CCN(C)CC5)c(F)c4)ncc3c2)c(=O)n(Cc2ccc(F)c(F)c2)n1C` [IV-55, 2-(3,4-difluorobenzyl)-N-{(2E)-3-[2-({3-fluoro-4-[(1-methylpiperidin-4-yl)amino]-phenyl}amino)quinazolin-6-yl]prop-2-en-1-yl}-1,5-dimethyl-3-oxo-2,3-dihydro-1H-pyrazole-4-carboxamide], the remaining activity at 10 µM came to 16.5%.

With `CC(C)Nc1ncc2cc(/C=C/CNC(=O)c3cccn(Cc4ccc(F)c(F)c4)c3=O)ccc2n1` [IV-91], the remaining activity at 10 µM came out at 26.1%.
